Results published in patent publication US12358897B2, “Compounds and method of treating COVID-19” (Pfizer Inc., priority 2020, dated 2025).

Key:
[1] = biological target: T1, full-length SARS-CoV-2 3CL protease (Severe acute respiratory syndrome coronavirus 2, UniProt P0DTD1); experiment: SARS-CoV-2 Coronavirus 3C Protease FRET Assay (Dabcyl-KTSAVLQ-SGFRKME-Edans substrate); type: biochemical; details: 15 nM enzyme, 25 μM peptide substrate, 60 minutes at 23° C.; Morrison equation fit; read-out: Geometric Mean Ki
T1 construct: measures the activity of full-length SARS-CoV-2 3CL protease

[2] = test system: SARS-CoV-2 (USA_WA1/2020) in VeroE6 cells enriched for hACE2 expression; experiment: microbe, parasite or virus in culture; type: cell-based; details: Severe acute respiratory syndrome coronavirus 2, Vero C1008, 72 h, read-out: Geometric Mean EC50

Row | SMILES | Ki [1] [µM] | EC50 [2] [µM]
1 | COc1cccc2[nH]c(C(=O)N[C@@H](CC(C)C)C(=O)N[C@@H](C[C@@H]3CCNC3=O)C(=O)COC(=O)C(C)C)cc12 [Example 10, (3S)-3-({N-[(4-methoxy-1H-indol-2-yl)carbonyl]-L-leucyl}amino)-2-oxo-4-[(3S)-2-oxopyrrolidin-3-yl]butyl 2-methylpropanoate] | 0.0637 | 0.205
2 | COc1cccc2[nH]c(C(=O)N[C@@H](CC(C)C)C(=O)N[C@@H](C[C@@H]3CCNC3=O)C(=O)COC(=O)C3CCCCC3)cc12 [Example 12, (3S)-3-({N-[(4-methoxy-1H-indol-2-yl)carbonyl]-L-leucyl}amino)-2-oxo-4-[(3S)-2-oxopyrrolidin-3-yl]butyl cyclohexanecarboxylate] | 0.0738 | 0.109
3 | COc1cccc2[nH]c(C(=O)N[C@@H](CC(C)C)C(=O)N[C@@H](C[C@@H]3CCNC3=O)C(=O)COC(=O)C3(C)CCC3)cc12 [Example 14, (3S)-3-({N-[(4-methoxy-1H-indol-2-yl)carbonyl]-L-leucyl}amino)-2-oxo-4-[(3S)-2-oxopyrrolidin-3-yl]butyl 1-methylcyclobutanecarboxylate] | 0.348 | 0.505
4 | COc1cccc2[nH]c(C(=O)N[C@@H](CC(C)C)C(=O)N[C@@H](C[C@@H]3CCNC3=O)C(=O)COC(=O)c3cn(C)cn3)cc12 [Example 51, (3S)-3-({N-[(4-methoxy-1H-indol-2-yl)carbonyl]-L-leucyl}amino)-2-oxo-4-[(3S)-2-oxopyrrolidin-3-yl]butyl 1-methyl-1H-imidazole-4-carboxylate] | 0.152 | –
5 | COc1cccc2[nH]c(C(=O)N[C@@H](CC(C)C)C(=O)N[C@@H](C[C@@H]3CCNC3=O)C(=O)COC(=O)c3ccccc3CN(C)C)cc12 [Example 53, (3S)-3-({N-[(4-methoxy-1H-indol-2-yl)carbonyl]-L-leucyl}amino)-2-oxo-4-[(3S)-2-oxopyrrolidin-3-yl]butyl 2-[(dimethylamino)methyl]benzoate] | 0.014 | 0.538
6 | COc1cccc2[nH]c(C(=O)N[C@@H](CC(C)C)C(=O)N[C@@H](C[C@@H]3CCNC3=O)C(=O)COC(=O)c3c(C)ccnc3CN(C)C)cc12 [Example 59, (3S)-3-({N-[(4-methoxy-1H-indol-2-yl)carbonyl]-L-leucyl}amino)-2-oxo-4-[(3S)-2-oxopyrrolidin-3-yl]butyl 2-[(dimethylamino)methyl]-4-methylpyridine-3-carboxylate] | 0.0136 | –
7 | COc1cccc2[nH]c(C(=O)N[C@@H](CC(C)C)C(=O)N[C@@H](C[C@@H]3CCNC3=O)C(=O)COC(=O)c3c(C)ccnc3C)cc12 [Example 62, (3S)-3-({N-[(4-methoxy-1H-indol-2-yl)carbonyl]-L-leucyl}amino)-2-oxo-4-[(3S)-2-oxopyrrolidin-3-yl]butyl 2,4-dimethylpyridine-3-carboxylate] | 0.00429 | –
8 | CCOc1nccc(C)c1C(=O)OCC(=O)[C@H](C[C@@H]1CCNC1=O)NC(=O)[C@H](CC(C)C)NC(=O)c1cc2c(OC)cccc2[nH]1 [Example 64, (3S)-3-({N-[(4-methoxy-1H-indol-2-yl)carbonyl]-L-leucyl}amino)-2-oxo-4-[(3S)-2-oxopyrrolidin-3-yl]butyl 2-ethoxy-4-methylpyridine-3-carboxylate] | 0.0349 | –
9 | COc1cccc2[nH]c(C(=O)N[C@@H](CC(C)C)C(=O)N[C@@H](C[C@@H]3CCNC3=O)C(=O)COC(=O)c3c(C)cc(C#N)cc3C)cc12 [Example 65, (3S)-3-({N-[(4-methoxy-1H-indol-2-yl)carbonyl]-L-leucyl}amino)-2-oxo-4-[(3S)-2-oxopyrrolidin-3-yl]butyl 4-cyano-2,6-dimethylbenzoate] | 0.00767 | 0.0513
10 | COc1cccc(C)c1C(=O)OCC(=O)[C@H](C[C@@H]1CCNC1=O)NC(=O)[C@H](CC(C)C)NC(=O)c1cc2c(OC)cccc2[nH]1 [Example 66, (3S)-3-({N-[(4-methoxy-1H-indol-2-yl)carbonyl]-L-leucyl}amino)-2-oxo-4-[(3S)-2-oxopyrrolidin-3-yl]butyl 2-methoxy-6-methylbenzoate] | 0.0396 | –
11 | COc1cccc2[nH]c(C(=O)N[C@@H](CC(C)C)C(=O)N[C@@H](C[C@@H]3CCNC3=O)C(=O)COC(=O)c3c(C)cccc3Cl)cc12 [Example 67, (3S)-3-({N-[(4-methoxy-1H-indol-2-yl)carbonyl]-L-leucyl}amino)-2-oxo-4-[(3S)-2-oxopyrrolidin-3-yl]butyl 2-chloro-6-methyl benzoate] | 0.00882 | 0.163
12 | COc1cccc2[nH]c(C(=O)N[C@@H](CC(C)C)C(=O)N[C@@H](C[C@@H]3CCNC3=O)C(=O)COC(=O)c3c(C)cncc3C)cc12 [Example 68, (3S)-3-({N-[(4-methoxy-1H-indol-2-yl)carbonyl]-L-leucyl}amino)-2-oxo-4-[(3S)-2-oxopyrrolidin-3-yl]butyl 3,5-di methylpyridine-4-carboxylate] | 0.00756 | –
13 | COc1cccc2[nH]c(C(=O)N[C@@H](CC(C)C)C(=O)N[C@@H](C[C@@H]3CCNC3=O)C(=O)COC(=O)c3c(C)nc(C)nc3C)cc12 [Example 70, (3S)-3-({N-[(4-methoxy-1H-indol-2-yl)carbonyl]-L-leucyl}amino)-2-oxo-4-[(3S)-2-oxopyrrolidin-3-yl]butyl 2,4,6-trimethylpyrimidine-5-carboxylate] | 0.00589 | 4.8
14 | COc1cccc2[nH]c(C(=O)N[C@@H](CC(C)C)C(=O)N[C@@H](C[C@@H]3CCNC3=O)C(=O)COC(=O)c3c(C)ncnc3C)cc12 [Example 71, (3S)-3-({N-[(4-methoxy-1H-indol-2-yl)carbonyl]-L-leucyl}amino)-2-oxo-4-[(3S)-2-oxopyrrolidin-3-yl]butyl 4,6-di methylpyrimidine-5-carboxylate] | 0.000928 | 0.315
15 | COc1cccc2[nH]c(C(=O)N[C@@H](CC(C)C)C(=O)N[C@@H](C[C@@H]3CCNC3=O)C(=O)COC(=O)c3c(C)cccc3F)cc12 [Example 72, (3S)-3-({N-[(4-methoxy-1H-indol-2-yl)carbonyl]-L-leucyl}amino)-2-oxo-4-[(3S)-2-oxopyrrolidin-3-yl]butyl 2-fluoro-6-methylbenzoate] | 0.00891 | –
16 | COc1cc(C)c(C(=O)OCC(=O)[C@H](C[C@@H]2CCNC2=O)NC(=O)[C@H](CC(C)C)NC(=O)c2cc3c(OC)cccc3[nH]2)c(C)c1 [Example 73, (3S)-3-({N-[(4-methoxy-1H-indol-2-yl)carbonyl]-L-leucyl}amino)-2-oxo-4-[(3S)-2-oxopyrrolidin-3-yl]butyl 4-methoxy-2,6-dimethyl benzoate] | 0.117 | –
17 | COc1cccc2[nH]c(C(=O)N[C@@H](CC(C)C)C(=O)N[C@@H](C[C@@H]3CCNC3=O)C(=O)COC(=O)c3c(C)cc(F)cc3C)cc12 [Example 74, (3S)-3-({N-[(4-methoxy-1H-indol-2-yl)carbonyl]-L-leucyl}amino)-2-oxo-4-[(3S)-2-oxopyrrolidin-3-yl]butyl 4-fluoro-2,6-dimethylbenzoate] | 0.0443 | –
18 | COc1cccc2[nH]c(C(=O)N[C@@H](CC(C)C)C(=O)N[C@@H](C[C@@H]3CCNC3=O)C(=O)COC(=O)c3c(C)nc(C4CCOCC4)nc3C)cc12 [Example 75, (3S)-3-({N-[(4-methoxy-1H-indol-2-yl)carbonyl]-L-leucyl}amino)-2-oxo-4-[(3S)-2-oxopyrrolidin-3-yl]butyl 4,6-di methyl-2-(tetrahydro-2H-pyran-4-yl)pyrimidine-5-carboxylate] | 0.0055 | –
